# Measured values published in patent US20220062331A1, “TREATING IRON DEFICIENCY IN SUBJECTS AT RISK OF CARDIOVASCULAR ADVERSE EVENTS AND IRON FOR THE MANAGEMENT OF ATRIAL FIBRILLATION” (PHARMACOSMOS HOLDING A/S, priority 2019, published 2022).
# How the values were obtained:
# iFGF23 (intact FGF23) = settings: cited from earlier work
# [1] = CKD-04 Phase III study: protocol defined cardiovascular adverse events; type: in vivo, human; settings: for composite cardiovascular events (incidence, % of patients): CKD-04 study, IIM 1000 mg single dose (1019 patients) vs iron sucrose 5 x 200 mg (506 patients), within 8 weeks
# Description: (§1) Two Phase III randomized, open-label, comparative safety and efficacy studies were performed in relation to treatment with iron isomaltoside (“IIM”, tradename Monofer®, Monoferric®) and iron sucrose (“IS”, trade name Venofer®) in adult human subjects with iron deficiency anaemia and non-dialysis-dependent chronic kidney disease. These studies allowed comparing the incidence of treatment-emergent cardiovascular adverse events in particular in patients with cardiovascular risk factors.
# (§2) The studies were randomized, open-label, comparative studies. Subjects with iron deficiency anaemia (IDA) were randomized 1:1 to one treatment course of one of two treatments. Iron isomaltoside 1000 was administered as a single dose of 1000 mg of elemental iron. Iron sucrose was administered as 200 mg slow intravenous bolus injections according to its US label and repeated up to 5 times to reach a cumulative dose of 1000 mg. […]
# [2] = IDA-03 Phase III study: protocol defined cardiovascular adverse events; type: in vivo, human; settings: IDA-03 study, 989 vs 494 patients, within 8 weeks
# Description: as §1, §2
# [3] = Combined CKD-04/IDA-03 studies: treatment-emergent cardiovascular and congestive heart failure adverse events; type: in vivo; settings: for composite cardiovascular events (incidence, % of patients): 2008 patients on IIM, p=0.0176; for treatment-emergent congestive heart failure adverse events (% of patients) / worsening/exacerbation of heart failure (% of cases): all patients with CHF
# Description: as §1
# The studies were randomized, open-label, comparative studies. Subjects with iron deficiency anaemia (IDA) were randomized 1:1 to one treatment course of one of two treatments. Iron isomaltoside 1000 was administered as a single dose of 1000 mg of elemental iron. Iron sucrose was administered as 200 mg slow intravenous bolus injections according to its US label and repeated up to 5 times to reach a cumulative dose of 1000 mg.
# Said protocol defined cardiovascular adverse events were as follows: • (1) Congestive heart failure requiring hospitalization or medical intervention: • Congestive heart failure requiring hospitalization or medical intervention was defined as meeting the following criteria: • Requires hospitalization defined as an admission to an inpatient unit or a visit to an emergency department that results in at least a 12-hour stay (or a date change if the time of admission/discharge is not available); AND • Clinical manifestation of congestive heart failure including at least one of the following: new or worsening dyspnoea, orthopnoea, paroxysmal nocturnal dyspnoea, oedema, pulmonary basilar crackles, jugular venous distension, or radiological evidence of worsening heart failure; AND • Additional/increased therapy: • Intravenous treatment with diuretic, inotrope, or vasodilator therapy; OR • Mechanical or surgical intervention (mechanical circulatory support, heart transplantation, or ventricular pacing to improve cardiac function) or the use of ultrafiltration, hemofiltration, or dialysis that is specifically directed at treatment of heart failure. • (2) Arrhythmia: • Arrhythmia was defined as any symptomatic deviation from normal sinus rhythm experienced by the subject that results in an evaluation by a health care provider. The evaluation included a physical examination during an outpatient visit, an ECG, or a hospital admission. […]
# [4] = Combined CKD-04/IDA-03 studies: change from baseline in hemoglobin; type: in vivo, human
# Description: The primary efficacy outcome measure was the ability to increase Hb (g/dL) within 8 weeks.
# The co-primary efficacy endpoint was analysed using a restricted maximum likelihood (REML)-based mixed model for repeated measures (MMRM) approach. All subjects in the intention-to-treat (ITT) analysis set with post baseline Hb data was to be included with their observed data. The model included the fixed, categorical effects of treatment (iron isomaltoside and iron sucrose), week, treatment-by-week interaction, strata, as well as the continuous, fixed covariates of baseline Hb value and baseline Hb-by-week interaction. An unstructured (co)variance structure was used to model the within-subject errors. […] The Kenward-Roger approximation was to be used to estimate the denominator degrees of freedom. The primary comparisons will be the contrasts between iron isomaltoside and iron sucrose at week 8 based on the least squares means for the treatment-by-week interaction effect. The estimated mean difference based on this model was reported with two-sided symmetric 95% CI, and if the lower bound of the 95% CI is >−0.5 g/dL, the efficacy objective has been met.
# The following efficacy laboratory parameters were analysed: • Hb: Hemoglobin was analyzed by the Coulter LH 750 System. Lytic reagents were used for the complete blood count parameters to prepare the blood so that the system could measure the amount of hemoglobin. The lytic reagent rapidly and simultaneously destroyed the erythrocytes and converted the substantial proportion of the hemoglobin to a stable pigment. The absorbance of the pigment was directly proportional to the hemoglobin concentration in the sample. […] A chemiluminescent substrate, Lumi-Phos* 530, was added to the reaction vessel and light generated by the reaction was measured with a luminometer. • TSAT (s-iron and transferrin will be collected to calculate the TSAT; TSAT=(iron μg/dL/transferrin mg/dL)×70.9). • S-iron: Serum iron (s-iron) was measured by a calorimetric assay using Roche automated clinical chemistry analyzer based on a immunoturbidimetric assay.
# [5] = Randomized double-blind placebo-controlled trial in chronic heart failure patients: P-wave dispersion on 12-lead ECG (post-hoc analysis); type: in vivo, human
# Text: This study was a post-hoc analysis of a randomized, double-blind, placebo-controlled trial that was approved by the South-Central Berkshire ethics committee, the UK Medicines and Healthcare products Regulatory Agency, and the King's College Hospital independent research governance board. King's College London University and King's College Hospital NHS Foundation Trust were co-sponsors. The King's Health Partners clinical trial office monitored the trial and ensured compliance with the International Conference on Harmonization guidelines for Good Clinical Practice and the Declaration of Helsinki. Written informed consent was obtained from all patients. FIG. 1 represents a flow chart of the trial. A total of 25 chronic heart failure patients in normal sinus rhythm were recruited into this trial with 15 randomized to intravenous saline placebo and 10 randomized to intravenous iron isomaltoside.
# Patients with stable, symptomatic, chronic heart failure and a left ventricular ejection fraction <45% were recruited from dedicated heart failure clinics at King's College Hospital, London. Main exclusion criteria were a history of acquired iron overload, known haemochromatosis or first degree relatives with haemochromatosis; an allergic disorder (e.g., asthma, eczema, and anaphylactic reactions); prior hypersensitivity to IV iron drugs or their excipients; active infection, bleeding, malignancy, haemolytic anemia, rheumatoid arthritis, and myelodysplasia; and HIV/AIDS.
# After inclusion into the trial, patients had endpoints assessed which included a 12-lead surface electrocardiogram to measure P-wave dispersion (difference between maximum and minimum P-wave duration across all leads), heart rate (HR), PR interval, QRS duration, QT interval and corrected QT interval (QTc). FIG. 2 is an example of a surface electrocardiogram with P-wave durations measured. An echocardiogram was also done to measure LVEF, left ventricular end-diastolic volume (LVED), left ventricular end-systolic volume (LVES), left atrial (LA) volumes and right atrial (RA) volumes with and without indexing for body surface area. After baseline assessments, patients were then infused a total repletion dose of iron isomaltoside or an equivalent volume of normal saline placebo. Endpoints were then reassessed 2 weeks later. A Student's t-test or a Fisher's Exact test were statistically used to assess the baseline characteristics between the groups. An ANCOVA was used to statistically compare the week 2 endpoint results between the groups with adjustment for each variables baseline value.
# [6] = iron-deficient CHF patients with LVEF ≤45%; single total dose infusion (Jaumdally et al., 2019); cited from earlier work
# [7] = 20 elderly CHF patients, cited from earlier work
# [8] = single total dose infusion; 2 weeks post-infusion; cited from earlier work
substance,measurement,setting,value
ferric carboxymaltose,effect on iFGF23,iFGF23 (intact FGF23); see WO 2013/134273 A1,significantly increases
ferric derisomaltose [iron isomaltoside 1000],"probability of not experiencing an adjudicated composite adverse cardiovascular event, compared to iron sucrose","[1]; CKD-04, after 8 weeks, Kaplan-Meier",significantly higher
same,"composite cardiovascular events (incidence, % of patients)",[1],4.1%
same,"composite cardiovascular events (incidence, % of patients)",[2],0.8%
same,"composite cardiovascular events (incidence, % of patients)",[2]; listed as iron,1.2%
same,incidence on composite CV endpoint (and most sub-items including death from any cause) compared to Venofer and FCM (CDER report),[3]; Ferwon studies vs Injectafer FDA CDER report,lower
same,decrease of composite cardiovascular events when treated with iron isomaltoside 1000 versus iron sucrose,[3]; combined CKD-04/IDA-03,60%
same,"composite cardiovascular events (incidence, % of patients)",[3]; combined CKD-04/IDA-03,2.5%
same,treatment-emergent congestive heart failure adverse events (% of patients),[3]; combined CKD-04/IDA-03,1.8%
same,worsening/exacerbation of heart failure (% of cases),[3]; combined CKD-04/IDA-03,1.8%
same,"rates of congestive heart failure, hypertension, atrial fibrillation, hypotension, and cardiac arrest compared to iron sucrose","[3]; in each study (CKD-04, IDA-03, combined)",lower
same,incidence for congestive heart failure,[3]; patients with CV risk,1.2%
same,worsening of congestive heart failure,[3]; patients with CV risk,1.2%
same,incidence for congestive heart failure,[3]; patients with CV risk and CHF,1.4%
same,worsening of congestive heart failure,[3]; patients with CV risk and CHF,1.4%
same,increase in Hb from baseline compared to iron sucrose,"[4]; all patients, weeks 1 and 2, p<0.001",higher increase
same,change in Hb from baseline compared to iron sucrose (primary efficacy endpoint),"[4]; all patients, weeks 4 and 8",non-inferiority
same,increase in Hb from baseline,"[4]; patients with congestive heart failure in medical history, week 1 and 2",higher increase
same,"P-wave dispersion, changes in individual patients (FIG. 5)","[5]; ANCOVA P-value 0.007, unchanged in saline placebo group",shortened
same,reduction of P-wave dispersion,"[5]; at 2 weeks after total repletion dose, vs saline placebo, P=0.007",10 ms
same,"P-wave dispersion, adjusted difference between the groups (ANCOVA)","[5]; at 2 weeks, 95% confidence interval −17 & −3 msec, P=0.007",-10 ms
same,P-wave dispersion difference after adjusting for size of the atria (indexed LA and RA volumes),"[5]; at 2 weeks, 95% confidence interval −18 & −4 msec, P=0.005",-11 ms
same,"effect on the other endpoints (HR, PR, QRS, QT, QTc, LVEF, LV and atrial volumes)","[5]; at 2 weeks, ANCOVA",no significant effect
same,P wave dispersion,[6],attenuate
same,QoL measures,[7],improved
same,tolerability,[7]; single fast intravenous infusion at relatively high doses without test dose,very well tolerated
same,iron stores,[8],repleted
same,skeletal muscle energetics,[8],augmented
same,risk for increasing iFGF23 and triggering iFGF23-mediated effects,"iFGF23 (intact FGF23); clinical trials, Wolf et al., 2019",low
iron sucrose,"composite cardiovascular events (incidence, % of patients)",[1],6.9%
same,"composite cardiovascular events (incidence, % of patients)",[3]; combined CKD-04/IDA-03,4.1%
same,treatment-emergent congestive heart failure adverse events (% of patients),[3]; combined CKD-04/IDA-03,6.5%
same,worsening/exacerbation of heart failure (% of cases),[3]; combined CKD-04/IDA-03,5.4%
same,incidence for congestive heart failure,[3]; patients with CV risk,3.5%
same,worsening of congestive heart failure,[3]; patients with CV risk,1.7%
same,incidence for congestive heart failure,[3]; patients with CV risk and CHF,4.9%
same,worsening of congestive heart failure,[3]; patients with CV risk and CHF,3.7%
